# Measured values: patent publication US20260217712A1, “SOLID STATE FORMS OF MNK INHIBITORS” (4E Therapeutics, Inc., priority 2023, published 2026)
# Like-named read-outs stand apart in the source and are kept apart here.
# Key:
# Assay type in all cases: physicochemical
# [1] = Thermodynamic solubility in simulated media and buffers; details: 25° C./24 h
# Procedure: The thermodynamic solubility for Pattern 11 was determined in 3 simulated media and two buffers. […]
# [2] = Gravimetric vapor sorption (GVS) and XRPD post-GVS; details: for GVS reversible water uptake 0-90% RH: 25° C.; for Post GVS XRPD form: after double cycle GVS
# Procedure: Sorption isotherms were obtained using a SMS DVS Intrinsic moisture sorption analyzer, controlled by DVS Intrinsic Control software. The sample temperature was maintained at 25° C. by the instrument controls. The humidity was controlled by mixing streams of dry and wet nitrogen, with a total flow rate of 200 mL/min. The relative humidity was measured by a calibrated Rotronic probe (dynamic range of 1.0-100% RH), located near the sample. The weight change, (mass relaxation) of the sample as a function of % RH was constantly monitored by a microbalance (accuracy±0.005 mg).
# Typically, 5-30 mg of sample was placed in a tared mesh stainless steel basket under ambient conditions. The sample was loaded and unloaded at 40% RH and 25° C. (typical room conditions). A moisture sorption isotherm was performed as outlined below (2 scans per complete cycle). The standard isotherm was performed at 25° C. at 10% RH intervals over a 0-90% RH range. Typically, a double cycle (4 scans) was carried out. Data analysis was carried out within Microsoft Excel using the DVS Analysis Suite.
# Sorption isotherms were obtained using a Hiden IGASorp moisture sorption analyser, controlled by Isochema HISorp software. The sample temperature was maintained at 25° C. by a Grant LT ecocool 150 re-circulating water bath. The humidity was controlled by mixing streams of dry and wet nitrogen, with a total flow rate of 250 ml·min-1. The relative humidity was measured by a calibrated Vaisala RH probe (dynamic range of 0-95% RH), located near the sample. The weight change, (mass relaxation) of the sample as a function of % RH was constantly monitored by the microbalance (accuracy±0.001 mg).
# Typically, 20-30 mg of sample was placed in a tared mesh stainless steel basket under ambient conditions. The sample was loaded and unloaded at 40% RH and 25° C. (typical room conditions). A moisture sorption isotherm was performed as outlined below (2 scans giving 1 complete cycle). The standard isotherm was performed at 25° C. at 10% RH intervals over a 0-90% RH range. Typically, a double cycle (4 scans) was carried out. Data analysis was carried out within the Isochema HISorp 2019 software and exported into Microsoft Excel to present accordingly.
# [3] = Thermodynamic solubility in simulated media and buffers; details: listed as Structure (I) Pattern 3
# [4] = Static storage at 25° C./97% RH, XRPD and HPLC post storage; details: 8 days, listed as Lot B Sample 1
# XRPD under vacuum = details: for XRPD under vacuum: after 30 min under vacuum
# Source text: XRPD diffractograms were collected on a PANalytical Empyrean diffractometer using Cu Kα radiation (45 kV, 40 mA, λ=1.544398 Å) in reflection geometry. The instrument was fitted with an Anton Paar CHC plus+ stage fitted with graphite/Kapton windows and equipped with air cooling coupled or a low vacuum pump system using an Edwards RV3 pump. A programmable divergence slit (in automatic mode), with a 10 mm fixed incident beam mask, Ni filter and 0.04 rad Soller slits were used on the incident beam. A PIXcel3D detector, placed on the diffracted beam, was fitted with a programmable anti-scatter slit (in automatic mode) and 0.04 rad Soller slits.
# For XRPD under vacuum the samples were prepared and analyzed in an Anton Paar chromed sample holder. The sample temperature was kept constant throughout at 25° C. The measurement parameters are as per the standard screening data collection method (detailed above). An initial measurement was taken before the vacuum was initiated and then subsequently at 10 min intervals. Data collection was stopped after three consecutive scans showing no change.
# [5] = Competitive slurries of Pattern 3 and Pattern 11, XRPD
# In short: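 Turbula-mixed 1:1 Pattern 3/Pattern 11 solid (30 mg) slurried in dried solvent (20 vol) at fridge temperature, RT or 55 °C; XRPD after 7 days, mixtures re-checked after a further 10 days. Repeats at 5 °C and 55 °C used filtered THF/water (9:1) saturated with Structure (I); XRPD after 1 and 11 days.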
# [6] = Single crystal X-ray diffraction
# Procedure: Crystals of Structure (I) Pattern 3 were obtained by evaporation of a THF:water 9:1 solution. A crystal of Structure (I) Pattern 3 of sufficient size and quality for analysis by single crystal X-ray diffraction was isolated from the sample with approximate dimensions 0.15×0.05×0.02 mm.
# The single crystal X-ray structure of Structure (I) Pattern 3 was determined at 293(2) K and a summary of the structural data can be found in Table 41. The crystal structure of Structure (I) Pattern 3 was solved in the triclinic space group P-1 with the final R1 [I>2σ(I)]=4.36%. The structure was identified as depicted in FIG. 89 and FIG. 90 and the asymmetric unit found to contain two molecules of Structure (I).
# LogD = assay: LogD
compound,measurement,setting,value
Cc1cc(Nc2cc(N)ncn2)c(=O)n2c1C(=O)NC21CCC2(CC2)CC1 [Pattern 3],Solubility FaSSGF,"[1]; FaSSGF, listed as Structure (I) Pattern 3",26 µg/mL
same,Solubility FaSSIF,"[1]; FaSSIF, listed as Lot B Sample 2",FaSSIF-0.0016 mg/mL
same,Solubility FeSSIF,"[1]; FeSSIF, listed as Lot B Sample 2",FeSSIF-0.0060 mg/mL
same,Solubility pH 2.0,"[1]; pH 2.0 buffer, listed as Lot B Sample 2",pH 2.0-0.012 mg/mL
same,Solubility pH 7.4,[1]; pH 7.4 buffer,pH 7.4-0.001 mg/mL
same,hygroscopicity (in words),[2],hygroscopic
same,GVS reversible water uptake 0-90% RH,[2],8.4 wt %
same,GVS reversible water uptake 0-90% RH,[2]; listed as Lot B Sample 1,8.4 wt % reversible water uptake
same,GVS uptake 80-90% RH,[2]; 80-90% RH,6.3 wt % uptake 80-90% RH
same,Post GVS XRPD form,[2],the solid form was retained
same,Post GVS XRPD form,[2]; listed as Lot B Sample 1,Post GVS XRPD: No change in form
same,hygroscopicity (in words),[2]; listed as Lot B,hygroscopic
same,hygroscopicity (in words),[2]; listed as Lot B Sample 1,Material is hygroscopic
same,solubility in simulated fluids and buffers (in words),[3],poor
same,HPLC purity after storage at 25° C./97% RH (8 days),[4],98.5%
same,XRPD after storage at 25° C./97% RH (8 days),[4],Unchanged by XRPD
same,XRPD under vacuum,XRPD under vacuum; listed as Lot B,converted to Pattern 10
same,XRPD under vacuum,XRPD under vacuum; listed as Lot B Sample 1,Conversion to Pattern 10 after 30 min
same,XRPD after vacuum released,"XRPD under vacuum; vacuum released for 30 min, ambient conditions, listed as Lot B Sample 1",Conversion back to Pattern 3 after
same,form conversion in competitive slurries (in words),[5],converted to Pattern 11
same,F(000),[6],796
same,Density (calculated),[6]; 293(2) K,1.339 Mg/m^3
same,Unit cell dimensions a,[6]; 293(2) K,a = 10.1823(3) Å Å
same,Unit cell dimensions b,[6]; 293(2) K,b = 12.1136(4) Å Å
same,Unit cell dimensions c,[6]; 293(2) K,c = 16.6675(3) Å Å
same,Unit cell dimensions α,[6]; 293(2) K,α = 72.512(2)°
same,Unit cell dimensions β,[6]; 293(2) K,β = 79.465(2)°
same,Unit cell dimensions γ,[6]; 293(2) K,γ = 72.661(3)°
same,Z,[6]; 293(2) K,4
same,Crystal system,"[6]; 293(2) K, wavelength 1.54184 Å",Triclinic
same,Crystal habit,"[6]; crystal from THF:Water 9:1, evaporative",Colorless lath
same,Volume,"[6]; unit cell, 293(2) K",1861.87(10) Å^3
same,Absorption coefficient,[6]; wavelength 1.54184 Å,0.756 mm^−1
same,logD,LogD,3.1
